These results are taken from ChEMBL document CHEMBL1201862, “PubChem BioAssay data set” (2004).

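Dose response: 5 concentrations. Exposure: 48 h. Format: 96-well plates. Endpoint: linear interpolation; highest concentration if not reached. The concentration for 50% growth inhibition is given as GI50.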 Active and inactive are the calls of the source. No stated cut-off is given here; in the data, active = GI50 up to about 1.1 µM and inactive = higher.

Holding throughout (experiment): inhibition of tumour cell growth, NCI panel, 48 h
The test system of test [1] is A498.
Test [2] deals with DU-145.
For test [3], the system named is HL-60.
In test [4] the test system is HOP-62.
The test system of test [5] is LOX IMVI.
Test [6] relates to MCF7.
The subject of test [7] is MDA-MB-435.
Test [8] relates to MDA-N.
Test [9] deals with NCI-H226.
Test [10] concerns NCI-H522.
Test [11] has as its system NCI/ADR-RES.
Test [12] concerns OVCAR-8.
Test [13] relates to PC-3.
For test [14], the system named is SW-620.
In test [15] the test system is T47D.
For test [16], the system named is TK-10.
For test [17], the system named is U-251.
Test [18] relates to UACC-257.
The test system of test [19] is IGROV-1.
Test [20] has as its system SNB-19.

For the compound `O=P1(N(CCCl)CCCl)Oc2ccc(Cl)cc2Sc2c(ccc(Cl)c2Cl)O1` (configuration not stated), the GI50 is 22.2 µM (inactive) in [1]; 63.7 µM (inactive) in test [2]; 4.1 µM (inactive) in test [3]; 16 µM (inactive) in test [4]; 14.6 µM (inactive) in [5]; 6.38 µM (inactive) in [6]. Also, the GI50 in test [7] is 7.1 µM (inactive); in test [8] it was 7.91 µM (inactive); in test [9], 8.26 µM (inactive); in [10], 6.4 µM (inactive); in test [11], 6.04 µM (inactive); in test [12], 8.71 µM (inactive). Also, the GI50 in [13] was 3.28 µM (inactive); in [14], 6.68 µM (inactive); in test [15], 8.38 µM (inactive); in test [16], 9.18 µM (inactive); in [17], 6.76 µM (inactive); in test [18], 10.4 µM (inactive).
With `N=C(N)SCc1ccc(Cl)c2ccccc12.O=[N+]([O-])c1ccc(O)c([N+](=O)[O-])c1`, the GI50 is 9.4 µM (inactive) in [1]; 12.9 µM (inactive) in [2]; 2.82 µM (inactive) in test [3]; 14.1 µM (inactive) in test [4]; 14.2 µM (inactive) in test [19]; 14.9 µM (inactive) in test [5]. The GI50 in [6] was 10 µM (inactive); in [7], 8.24 µM (inactive); in test [8], 11.1 µM (inactive); in [9] it was 12.4 µM (inactive); in [10], 7.78 µM (inactive); in test [11], 16.7 µM (inactive). The GI50 in test [12] was 22.1 µM (inactive); in test [13] it was 12.6 µM (inactive); in test [20] it was 16.2 µM (inactive); in [14], 11.7 µM (inactive); in test [15], 5.35 µM (inactive); in test [16], 6.84 µM (inactive). Moreover, the GI50 in [17] is 11.4 µM (inactive); in [18] it was 4.19 µM (inactive).
Consider `CCOC(=O)C(c1c[nH]c2ccccc12)(c1c[nH]c2ccccc12)c1c[nH]c2ccccc12`, for which the GI50 in [1] is 35.2 µM (inactive); in test [2], 39.8 µM (inactive); in test [3] it was 15.9 µM (inactive); in [4], 39.6 µM (inactive); in [19], 33.3 µM (inactive); in test [5] it was 31.9 µM (inactive). For the same compound, the GI50 in [6] was 19.7 µM (inactive); in [7], 18.7 µM (inactive); in test [8] it was 31.9 µM (inactive); in test [10], 27 µM (inactive); in test [11], 82.6 µM (inactive); in test [12] it was 36.2 µM (inactive). Also, the GI50 in [13] was 19.7 µM (inactive); in test [20] it was 26.5 µM (inactive); in [14] it was 19.8 µM (inactive); in test [15], 16.2 µM (inactive); in [16], 41.3 µM (inactive); in test [17] it was 36.9 µM (inactive). In addition, the GI50 in [18] is 34 µM (inactive).
In the case of `Cc1nn(C(=O)c2ccccc2O)c2c1C(c1ccc(O)cc1)SC(=N)N2` (configuration not stated), the GI50 in test [1] is 3.06 µM (inactive); in test [2] it was 1.67 µM (inactive); in test [3], > 2.03 µM (inactive); in test [19], 2.08 µM (inactive); in [5], 1.36 µM (inactive); in [6], > 2.36 µM (inactive). Further, the GI50 in test [7] was 1.21 µM (inactive); in test [8], 1.67 µM (inactive); in test [10] it was > 3.29 µM (inactive); in test [11], 2.03 µM (inactive); in [12], > 2.47 µM (inactive); in test [13], > 3.03 µM (inactive). Also, the GI50 in test [20] is 8.41 µM (inactive); in test [14] it was > 6.64 µM (inactive); in test [15] it was 1.23 µM (inactive); in test [16], > 2.52 µM (inactive); in [17] it was 1.37 µM (inactive); in test [18], 0.805 µM (active).
`NS(=O)(=O)c1ccc(C(=O)O)cc1` [CARZENIDE]: the GI50 in test [1], in test [2], in [3], in test [4], in test [19] and in test [5] was > 100 µM (inactive) each time. Also, the GI50 in test [6], in [7], in [8], in test [10], in [11] and in test [12] was > 100 µM (inactive) in each case. For the same compound, the GI50 in test [13], in test [20], in test [14], in test [15], in [16] and in test [17] was > 100 µM (inactive) each time.
Take `COc1ccc(N2C(=O)C3c4[nH]c5cccc(C)c5c4C4CCC(C(C)(C)C)CC4C3C2=O)cc1` (configuration not stated): the GI50 in test [1] is > 10 µM (inactive); in [2] it was > 10 µM (inactive); in [3] it was > 10 µM (inactive); in test [4] it was > 10 µM (inactive); in [19], > 10 µM (inactive); in test [5] it was 8.3 µM (inactive). The GI50 in test [6], in [7], in test [8], in [9], in test [10] and in [11] was > 10 µM (inactive) throughout. In addition, the GI50 in test [12], in test [13], in test [20], in [14], in test [15] and in [16] was > 10 µM (inactive) throughout. The GI50 in test [17] was 9.91 µM (inactive).
Turning to `O=C1CC(c2cccc(Cl)c2)Nc2ccc(N3CCCC3)cc21` (configuration not stated), the GI50 in [1] is 0.01 µM (active); in [2], 0.0391 µM (active); in test [4], 0.419 µM (active); in [19] it was 0.13 µM (active); in test [5], 0.0518 µM (active); in test [6] it was 0.555 µM (active). Further, the GI50 in test [7] is 0.00484 µM (active); in test [8], 0.00359 µM (active); in test [9], 0.0721 µM (active); in test [10], 0.0191 µM (active); in [11], 0.0274 µM (active); in test [12], 0.0522 µM (active). Further, the GI50 was 0.0343 µM (active) in test [13]; 0.0332 µM (active) in [20]; 0.0266 µM (active) in test [14]; > 100 µM (inactive) in test [15]; 0.942 µM (active) in [16]; 0.0314 µM (active) in test [17]. Besides, the GI50 in [18] was 0.0687 µM (active).
As to `COc1ccc(C(CC2(c3ccc(OC)cc3)SCCCS2)NC(C)=O)cc1` (configuration not stated), the GI50 in test [1] is 90.6 µM (inactive); in test [2], 44.6 µM (inactive); in test [3], 18.7 µM (inactive); in test [4], 47.1 µM (inactive); in test [19] it was > 100 µM (inactive); in test [5], 85.5 µM (inactive). The GI50 is 37.2 µM (inactive) in test [6]; 40.7 µM (inactive) in [7]; 61 µM (inactive) in [8]; 29.2 µM (inactive) in test [10]; 21.2 µM (inactive) in test [11]; 42.3 µM (inactive) in test [12]. Also, the GI50 is 23.8 µM (inactive) in test [13]; 99.1 µM (inactive) in test [20]; 47.8 µM (inactive) in test [14]; 24.2 µM (inactive) in test [15]; 39.8 µM (inactive) in [16]; 38.8 µM (inactive) in [17]. For the same compound, the GI50 in [18] is 26.2 µM (inactive).
Regarding `O/N=C1\CC2(N3CCOCC3)CCC1(Cc1ccccc1)CC2`, the GI50 was 32 µM (inactive) in test [1]; > 100 µM (inactive) in test [2]; > 100 µM (inactive) in [3]; 23 µM (inactive) in test [4]; 43.6 µM (inactive) in test [19]; 2.55 µM (inactive) in test [5]. The GI50 in test [6] is > 100 µM (inactive); in [7], > 100 µM (inactive); in test [8], > 100 µM (inactive); in test [9] it was 35 µM (inactive); in [10], 43.4 µM (inactive); in test [11] it was 61.1 µM (inactive). Also, the GI50 is 23.4 µM (inactive) in [12]; > 100 µM (inactive) in test [13]; 24.1 µM (inactive) in test [20]; > 100 µM (inactive) in test [14]; 32 µM (inactive) in [15]; 19.4 µM (inactive) in [17]. In addition, the GI50 in test [18] is > 100 µM (inactive).
With `Cc1c(-c2ccccc2)c(C#N)c2nnn(-c3ccc([N+](=O)[O-])cc3)c(=O)n12`, the GI50 in test [1] was 19.9 µM (inactive); in test [2], 5.38 µM (inactive); in test [3], 1.92 µM (inactive); in test [4] it was 13.6 µM (inactive); in test [19] it was 10.2 µM (inactive); in test [5], 17.5 µM (inactive). Moreover, the GI50 was 16.2 µM (inactive) in [6]; 24.8 µM (inactive) in [7]; 40.6 µM (inactive) in test [8]; 13.2 µM (inactive) in test [9]; 10.2 µM (inactive) in test [10]; 15.9 µM (inactive) in test [11]. Besides, the GI50 in [12] was 10.9 µM (inactive); in [13] it was 3.48 µM (inactive); in test [14], 7.78 µM (inactive); in [15] it was 21.9 µM (inactive); in test [16], 28.1 µM (inactive); in test [17], 9.93 µM (inactive). Further, the GI50 in test [18] was > 100 µM (inactive).
`Cn1c(-c2ccccc2)c2cc3nc4ccccc4nc3cc2c1-c1ccccc1`: the GI50 in test [1] is 19.6 µM (inactive); in [2], 30.3 µM (inactive); in test [3] it was 20.1 µM (inactive); in test [4] it was 10.2 µM (inactive); in [19], 17.5 µM (inactive); in test [5], 14 µM (inactive). The GI50 in test [6] is 12.1 µM (inactive); in [7], 5.79 µM (inactive); in test [8], 5.87 µM (inactive); in test [10], 15.2 µM (inactive); in test [11], 23.2 µM (inactive); in test [12], 22.1 µM (inactive). For the same compound, the GI50 in test [13] was 14.7 µM (inactive); in test [20], 20.2 µM (inactive); in test [14] it was 15.8 µM (inactive); in [15] it was 24.5 µM (inactive); in [16], 41 µM (inactive); in [17], 19.8 µM (inactive). In test [18], the GI50 was 56.2 µM (inactive).
